Values of other authors in patent US5283250A, “Quinolinyl/quinolinylalkyl-N-terminal amino hydroxy” (G. D. Searle & Co., priority 1991, dated 1994).
Square brackets hold non-standard residues; d marks the D form. Peptide text beside a SMILES is read from it. * marks the point of attachment. Sta = CC(C)C[C@H](N)[C@@H](O)CC(=O)O; Isovaleryl = CC(C)CC(=O)*

What was measured:
renin = conditions: Umezawa et al 1970
pepsin = conditions: Umezawa et al 1970
cathepsin D = conditions: Umezawa et al 1970
hog renin = conditions: after injection of hog renin into nephrectomized rats; Gross et al 1971

CC(C)CC(=O)N[C@H](C(=O)N[C@H](C(=O)N[C@@H](CC(C)C)[C@@H](O)CC(=O)N[C@@H](C)C(=O)N[C@@H](CC(C)C)[C@@H](O)CC(=O)O)C(C)C)C(C)C [pepstatin] (Isovaleryl-VV[Sta]A[Sta]-OH)
inhibition of renin (in words) (renin): inhibitor
inhibition of pepsin (in words) (pepsin): inhibitor
inhibition of cathepsin D (in words) (cathepsin D): inhibitor
blood pressure in vivo (in words) (hog renin): reduce blood pressure in vivo
inhibition of acid proteases in addition to renin (in words) (acid proteases): inhibiting acid proteases in addition to renin
